Reference: patent US20100204202A1, “DRUG FOR ALLEVIATING MOTOR COMPLICATIONS OR PSYCHIATRIC SYMPTOMS OF PARKINSON'S DISEASE” (Asubio Pharma Co., Ltd., priority 2007, published 2010)
Structures can show the parent of a compound that is named as a salt.

Key:
Type in all cases: in vivo, rat
[1] = test system: rats; assay: Amount of locomotor activity; conditions: 0.3, 1, and 3 mg/kg i.p.; minutes 0-15
Source text: For the test, Crl: CD(SD) male rats supplied by Charles River Japan were used (6 weeks old at start of test). For the forced swimming test, the method of the improved type reported by Lucki et al. (Lucki I., “The forced swimming test as a model for core and component behavioral effects of antidepressant drugs”, Behavioural Pharmacology, 1997, 8, p. 523-532; Cryan J. F. et al., “Assessing antidepressant activity in rodents: recent developments and future needs”, TRENDS in Pharmacological Sciences, 2002, 23, p. 238-245) was used. On day 1, each rat was placed in a cylinder filled with water (height 45 cm×diameter 30 cm, water depth 30 cm, water temperature 23° C., water depth set to depth by which back legs and tail of rat will not touch the bottom). The rat was taken out after 15 minutes. At this time, the immobility period (seconds) of minutes 10-15 (5 minutes) was recorded. Based on the results, the rats were assigned to five groups so that there would be no difference among the groups. On day 2, each rat was placed in a cylinder filled with water the same as day 1 and the immobility period (seconds), swimming behavior period (seconds), and climbing behavior period (seconds) of minutes 0-5 (5 minutes) were measured. […]

[2] = test system: Parkinson's disease model rats; assay: Rate of incidence of rotational behavior induced by levodopa dosage (response failure); conditions: sustained subcutaneous administration (osmotic pump) from week 6 of repeated levodopa, 2 weeks
Experimental: Therefore, the inventors prepared Parkinson's disease model rats in the same way as in Example 4 and treated the rats by repeated doses of levodopa (twice a day, Monday to Friday) for 7 weeks. The presence or absence of the rotational behavior of each rat was recorded at approximately 1 hour after the administration of levodopa during the repeated dosing period. […] Therefore, from weeks 1 to 5 of repeated doses of levodopa, the inventors recorded the presence of any rotational behavior of the rats each time, then studied the effects of the tested substances from week 6 of repeated doses of levodopa by implanting an Aizet® osmotic pump filled with SUN N4057 or physiological saline (2ML4, volume 2 ml, flow rate 2.5 μl/hr) subcutaneously at the rats. In the 2 weeks after that, the inventors similarly continued to record the presence of any rotational behavior of the rats 1 hour after levodopa administration.

[3] = test system: Parkinson's disease model rats; assay: Levodopa-induced striatal dopamine release and rotational behavior, brain microdialysis in Parkinson's disease model rats; conditions: for rotational behavior of the rats: 3 and 10 mg/kg i.p.
Experimental: For preparing Parkinson's disease model rats by unilateral nigrostriatal dopamine nerve destruction, Crl: CD (SD) male rats supplied by Charles River Japan (8 weeks old at start of test) were used. About 30 minutes before injection of 6-hydroxydopamine, the norepinephrine reuptake inhibitor desipramine (25 mg/kg) was intraperitoneally administered, then the rat head was fixed to a brain stereotaxic apparatus under anesthesia by intraperitoneal administration of pentobarbital (40 mg/kg). 6-hydroxydopamine (total amount 8 μg/4 μL) including ascorbic acid was dissolved in physiological saline, then was injected at two locations of the right medial forebrain bundle (at 1.8 mm posterior to the bregma, 2.0 mm right-lateral to the median line and 8.3 mm ventral to the surface of the skill and 4.5 mm to the rear from the bregma, 1.4 mm to the right from the midline, and a depth of 8.5 mm from the cranium) through a microinjection syringe at a flow rate of 1.0 μL/min over 4 minutes, then was allowed to stand for 5 minutes. To confirm the success of dopamine nerve destruction after about 3 weeks from the above surgery, the rotational behavior of the rats after subcutaneous administration of the dopamine receptor agonist apomorphine (0.05 mg/kg) was measured using a rotational behavior-measuring equipment (Rotameter 6ch System, Muromachi Kikai Co., Ltd.). Rats rotating over 100 times in the opposite direction to the injection in the one hour right after apomorphine administration were judged to have unilateral nigrastriatal dopamine nerve destruction and were used for the subsequent tests.
Furthermore, from about one week later, the rats were given repeated intraperitoneal administration of levodopa (25 mg/kg)+peripheral dopa-decarboxylase inhibitor benserazide (10 mg/kg) (hereinafter referred to as “repeated doses of levodopa”) (twice a day, from Monday to Friday) for 6 weeks.
For the brain microdialysis guide cannule insertion surgery, under anesthesia by pentobarbital (40 mg/kg intraperitoneal administration), the head of each rat was fixed on a brain stereotaxic apparatus, then a brain microdialysis guide cannule (Carnegie Medicin PC12 guide cannule) was inserted into the right striatum (0.5 mm in front of the bregma, 3.0 mm from the midline to the right, and 4.0 mm deep from the cranium) and dental cement was used to fix it to the rat skull. […] The obtained dialysate was immediately measured for dopamine concentration using a high performance liquid chromatography system with an electrochemical detector (LC-ECD). Further, every 30 minutes after levodopa administration, the number of rotations in 5 minutes to the side opposite to the 6-hydroxydopamine injection side was visually measured. […]

[4] = Rate of biological utilization of SUN N4057 in rats
Experimental: Note that the rate of biological utilization of SUN N4057 in the rats, with subcutaneous administration, was a good one of about 100%, but with intraperitoneal administration, was a low one of about 27%. Further, it became clear that this quickly was consumed peaking at 15 minutes after administration. For this reason, in intraperitoneal administration, a higher dosage was set than with subcutaneous administration.

## O=C1c2ccccc2OC=C(Cl)N1CCCCN1CC=C(c2ccccn2)CC1 [SUN N4057, 3-chloro-4,5-dihydro-4-{4-[4-(2-pyridyl)-1,2,3,6-tetrahydropyridin-1-yl]butyl}-1,4-benzoxazepin-5-one.dihydrochloride-dihydrate]
[1]
  amount of locomotor activity: no significant change
[2]
  rate of incidence of rotational behavior: action on recovery
[3]; 3 and 10 mg/kg i.p. 20 minutes before levodopa 25 mg/kg, week 6 of repeated levodopa
  increase of the amount of striatal dopamine release due to levodopa: inhibitory action
[3]; 3 and 10 mg/kg i.p. before levodopa
  peak time of the amount of dopamine release: delayed
[3]; 150 to 210 minutes after levodopa dosage
  rotational behavior of the rats: increase
[3]; 30 minutes after levodopa administration
  rotational behavior of the rats: decreased
[4]; intraperitoneal administration
  rate of biological utilization: about 27%
  time of peak after administration: 15 min
[4]; subcutaneous administration
  rate of biological utilization: about 100%
